{
  "source": "patent US20210069169A1",
  "about": "“PHARMACEUTICAL COMPOSITIONS” (priority 2007, published 2021)",
  "key": {"[1]": {"test": "ERC-213: serum DHEA and eleven metabolites after daily intravaginal DHEA suppositories", "assay_type": "in vivo, postmenopausal women", "settings": "highest dose (Table 2)", "source_text": "The primary objective of that study was the evaluation of the systemic bioavailability of DHEA and its metabolites following daily intravaginal application of suppositories at four different DHEA concentrations. This study was a randomized, placebo-controlled and double-blind trial of 10-subjects per arm."}, "endometrium": {"tested_on": "endometrium", "test": "ERC-210: endometrial biopsy", "assay_type": "in vivo, postmenopausal women", "settings": "3 months intravaginal; biopsies before and after 12 weeks", "protocol": "Endometrial biopsy was performed at screening and at month 3 at end of study. All biopsies were examined by the same pathologist at the central laboratory (Dr. Robert Dubé, Department of cytology-pathology, Enfant-Jésus Hospital, Quebec City, Canada)."}, "[2]": {"tested_on": "postmenopausal women suffering from vaginal atrophy", "test": "ERC-210: vaginal examination (secretions, color, epithelial integrity, thickness)", "assay_type": "in vivo", "settings": "2, 4, 8 and 12 weeks", "source_text": "At the same time intervals of 2, 4, 8 and 12 weeks, the gynecologist or physician in charge of the study at each site performed a vaginal exam to evaluate the degree of severity (none, mild, moderate or severe, analyzed using values of 0, 1, 2 and 3, respectively) for the main signs of vaginal atrophy, namely vaginal secretions, vaginal color, vaginal epithelial integrity and vaginal epithelial surface thickness. […] In fact. the beneficial effects observed by the gynecologist and or physician are almost superimposable to those self-reported by women on their most bothersome symptoms.\nVaginal examination was performed at screening and then at day 1 and at 2, 4, 8 and 12 weeks. Vaginal secretions, vaginal color, vaginal epithelial integrity and vaginal epithelial surface thickness were evaluated according to the following degrees of severity: none, mild, moderate or severe."}, "[3]": {"test": "Example 2: serum steroids after oral DHEA capsules or percutaneous DHEA cream or gel", "description": "Thirty-six healthy 60-70-year-old postmenopausal women participated in the study after IRB approval and having given their written informed consent. Body weight was within ±20% of normal body weight according to Metropolitan Life Tables.\nThis study was a randomized open-label trial of 12 subjects per arm. After written informed consent was obtained and women were found eligible, each subject was randomized to receive DHEA by cream, get or orally. Daily, before breakfast, for 14 days, subjects received, at the research clinic, either 4 g of 10% DHEA gel or 4 g of 10% DHEA cream applied on a total 30 cm×30 cm area of the thighs or two 50 mg capsules of DHEA orally before breakfast.\nBlood sampling was performed at 08:00-09:00 h at screening and before application of DHEA, on the first day of dosing, as well as on days 2, 4, 7, 10 and 14. On the 1st and 14th days, blood samples were obtained at 0.5 h, 1 h, 1.5 h, 2 h, 3 h, 4 h, 5 h, 6 h, 7 h, 8 h, 12 h and 24 h following DHEA administration. […] Serum steroid analysis\nDHEA, DHEA-S, androst-5-ene-3β,17β-diol (5-diol), testosterone, androstenedione (4-dione), 17β-estradiol (E2), estrone (E1), estrone sulfate (E1-S), androsterone glucuronide (ADT-G), and androstane-3,17β-diol glucuronide (3 α-diol-G) were measured by gas chromatography/mass spectrometry (DHEA, 5-diol, 4-dione, testosterone, E1 and E2) using electron impact or chemical ionization and by liquid chromatography/tandem mass spectrometry using turboionspray (DHEA-S, E1-S, ADT-G and 3α-diol-G) as described (Labrie, Bélanger et a., 2006; Labrie, Bélanger, et al, 2007b and Swanson et al. 2007).\nOn days 1 and 14, the area under the curve of the serum concentration of each steroid was measured between 0 h and 24 h (AUC0-24 h). The areas under the curves were calculated by a linear trapezoidal method (model-independent). The relative bioavailability of the DHEA gel, DHEA cream and DHEA capsules was based on the mean difference in the log-transformed AUC values, All calculations were performed with the SAS software (SAS Institute, Cary, N.C., USA)."}, "postmenopausal women": {"tested_on": "postmenopausal women", "settings": "cited from earlier work"}, "[4]": {"settings": "cited from earlier work"}, "[5]": {"settings": "oral 150 mg (Buster et al. 1992)"}, "[6]": {"settings": "oral 300 mg (Buster et al. 1992)"}},
  "note": "Like-named read-outs stand apart in the source and are kept apart here.",
  "data": [
    {"compound": "C[C@]12CC[C@H](O)CC1=CC[C@@H]1[C@@H]2CC[C@]2(C)C(=O)CC[C@@H]12", "note": "[DHEA, dehydroepiandrosterone]", "values": [
      {"measurement": "Average serum DHEA", "setting": "[1]", "result": "4.76 ± 0.42", "unit": "ng/mL"},
      {"measurement": "Endometrial histology", "setting": "endometrium", "result": "no effect on endometrial histology"},
      {"measurement": "Signs of vaginal atrophy at vaginal exam", "setting": "[2]", "result": "highly statistically significant improvement of all four signs of vaginal atrophy"},
      {"measurement": "Higher amount of circulating DHEA-S at same DHEA exposure, oral vs percutaneous", "setting": "[3]; female, human, serum, po", "result": "6.7-9.0 fold"},
      {"measurement": "Transformation of DHEA into 4-dione, oral vs percutaneous", "setting": "[3]; female, human, serum, po", "result": "2.70-3.76 times"},
      {"measurement": "Efficacy of transformation into active androgens", "setting": "[3]; percutaneous DHEA (DHEA change 406%)", "result": 52, "unit": "%"}
    ]},
    {"compound": "C[C@]12CC[C@@H]3c4ccc(O)cc4CC[C@H]3[C@@H]1CC[C@@H]2O", "note": "[E2, 17β-estradiol]", "values": [
      {"measurement": "% of cases with persisting dyspareunia", "setting": "postmenopausal women; 25 μg intravaginally, 12 months", "result": 12.4, "unit": "%"},
      {"measurement": "% of patients with pH less than 5", "setting": "postmenopausal women; 12 weeks intravaginal 25 μg E2 (Bachmann et al. 2008)", "result": 51, "unit": "%"}
    ]},
    {"compound": "CCCCC(=O)O[C@H]1CC[C@H]2[C@@H]3CCc4cc(O)ccc4[C@H]3CC[C@]12C", "note": "[estradiol valerate]", "values": [
      {"measurement": "Increase of Ki labeling in endometrium", "setting": "postmenopausal women; 2 mg/day, 3 months", "result": 50, "unit": "%"}
    ]},
    {"compound": "C[C@]12CC[C@H](O)CC1=CC[C@@H]1[C@@H]2CC[C@]2(C)C(=O)CC[C@@H]12", "note": "[micronized DHEA]", "values": [
      {"measurement": "Maximal serum DHEA-S", "setting": "[4]; [5]", "result": "~10", "unit": "µg/mL"},
      {"measurement": "Maximal serum testosterone", "setting": "[4]; [5]", "result": "~1.6", "unit": "ng/mL"},
      {"measurement": "Maximal serum DHEA", "setting": "[4]; [6]", "result": "~15", "unit": "ng/mL"},
      {"measurement": "Maximal serum testosterone", "setting": "[4]; [6]", "result": "~2.75", "unit": "ng/mL"}
    ]},
    {"compound": "CCCCCCCCCCC(=O)O[C@H]1CC[C@H]2[C@@H]3CCC4=CC(=O)CC[C@]4(C)[C@H]3CC[C@]12C", "note": "[testosterone undecanoate]", "values": [
      {"measurement": "Effect on the endometrium", "setting": "postmenopausal women; 40 mg every second day", "result": "no effect on the endometrium"}
    ]}
  ]
}
